Measurements: patent publication US5391540A, “Substituted pyridine compounds” (Rohm and Haas Company, priority 1993, dated 1995)

Assays:
Test in all cases: Pre-emergent herbicidal activity (Table A)
Format in all cases: in vivo
Annual Bluegrass = settings: pre-emergence, Anbg, 11.2 kg/ha, 10-14 days, read-out: herbicidal rating (% inhibition)
Method: (§1) Tables A and B summarize results of tests conducted to determine the pre-emergent herbicidal activity of the compounds of this invention. The herbicidal ratings used in Tables A and B were assigned according to a scale based on the percent inhibition of each plant species. The herbicide rating symbols in Tables A and B are defined as follows: […]
(§2) One set of pre-emergent tests was conducted as follows:
(§3) Topsoil was placed in a pan and compacted to a depth of 0.95 to 1.27 cm. from the top of the pan. A predetermined number of seeds of each of several monocotyledonous and dicotyledonous annual plant species and/or vegetative propagules of various perennial plant species were placed on top of the soil. The soil required to level fill a pan after seeding or adding vegetative propagules was weighed into another pan. A known amount of the test compound dissolved or suspended in an organic solvent or water and applied in acetone or water as a carrier was thoroughly mixed with this cover soil, and the herbicide/soil mixture was used as a cover layer for the previously prepared pan. In Table A below the amounts of active ingredient were all equivalent to an application rate of 11.2 kilograms/hectare (kg/ha). After treatment, the pans were moved to a greenhouse bench where they were watered as needed to give adequate moisture for germination and growth.
(§4) Approximately 10-14 days (usually 11 days) after planting and treating, the plants were observed and the results recorded.
(§5) The plant species usually regarded as weeds which were utilized in one set of pre-emergent activity tests, the data for which are shown in Table A, are identified by letter headings printed diagonally above the columns according to the following legend: […]

Indian Mustard = settings: Brassica juncea, pre-emergence, Inmu, 11.2 kg/ha, 10-14 days, read-out: herbicidal rating (% inhibition)
Method: as §1, §2, §3, §4, §5

Wild Buckwheat = settings: Fallopia convolvulus, pre-emergence, Wibw, 11.2 kg/ha, 10-14 days, read-out: herbicidal rating (% inhibition)
Method: as §1, §2, §3, §4, §5

Seedling Johnsongrass = settings: Sorghum halepense, pre-emergence, Sejg, 11.2 kg/ha, 10-14 days, read-out: herbicidal rating (% inhibition)
Method: as §1, §2, §3, §4, §5

Yellow Nutsedge = settings: Cyperus, pre-emergence, Yens, 11.2 kg/ha, 10-14 days, read-out: herbicidal rating (% inhibition)
Summary of the method: (§6)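 Seeds or vegetative propagules were set on topsoil compacted to 0.95 to 1.27 cm below the pan rim, then covered with soil thoroughly mixed with a known amount of test compound in acetone or water carrier. Ratings follow a scale of percent inhibition per species.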

Barnyardgrass = settings: Echinochloa crus-galli, pre-emergence, Bygr, 11.2 kg/ha, 10-14 days, read-out: herbicidal rating (% inhibition)
Summary of the method: as §6

Velvetleaf = settings: Abutilon theophrasti, pre-emergence, Vele, 11.2 kg/ha, 10-14 days, read-out: herbicidal rating (% inhibition)
Summary of the method: as §6

Morningglory = settings: Ipomoea, pre-emergence, Mogl, 11.2 kg/ha, 10-14 days, read-out: herbicidal rating (% inhibition)
Summary of the method: as §6

Downy Brome = settings: Bromus tectorum, pre-emergence, Dobr, 11.2 kg/ha, 10-14 days, read-out: herbicidal rating (% inhibition)
Summary of the method: as §6

Cocklebur = settings: Xanthium strumarium, pre-emergence, Cobu, 11.2 kg/ha, 10-14 days, read-out: herbicidal rating (% inhibition)
Summary of the method: as §6

Row | Structure (SMILES) | inhibition at 11200 g/ha (Annual Bluegrass) | inhibition at 11200 g/ha (Indian Mustard) | inhibition at 11200 g/ha (Wild Buckwheat) | inhibition at 11200 g/ha (Seedling Johnsongrass) | inhibition at 11200 g/ha (Yellow Nutsedge) | inhibition at 11200 g/ha (Barnyardgrass) | inhibition at 11200 g/ha (Velvetleaf) | inhibition at 11200 g/ha (Morningglory) | inhibition at 11200 g/ha (Downy Brome) | inhibition at 11200 g/ha (Cocklebur)
1 | COC(=O)c1c(OC)nc(C(F)(F)F)c(C#N)c1CC(C)C [Compound 106, 3-pyridinecarboxylic acid, 5-cyano-2-methoxy-4-(2-methylpropyl)-6-(trifluoromethyl)-, methyl ester] | 75 to 100% | 75 to 100% | 75 to 100% | 0 to 24% | 0 to 24% | 75 to 100% | 0 to 24% | 50 to 74% | 75 to 100% | 0 to 24%
2 | COC(=O)c1c(OC)nc(C(F)(F)F)c(C(=O)n2cc(NC(C)=O)cn2)c1CC(C)C [Compound 107, 3-pyridinecarboxylic acid, 5-[[4-(acetylamino)-1H-pyrazol-1-yl]carbonyl]-2-methoxy-4-(2-methylpropyl)-6-(trifluoromethyl)-, methyl ester] | 75 to 100% | 75 to 100% | 50 to 74% | 75 to 100% | 0 to 24% | 75 to 100% | 75 to 100% | 75 to 100% | 0 to 24% | 0 to 24%
3 | COC(=O)c1c(OC)nc(C(F)(F)F)c(C(=O)n2cc(N)cn2)c1CC(C)C [Compound 108, 3-pyridinecarboxylic acid, 5-[(4-amino-1H-pyrazo1-1-yl)carbonyl]-2-methoxy-4-(2-methylpropyl)-6-(trifluoromethyl)-, methyl ester] | 75 to 100% | 75 to 100% | 75 to 100% | 50 to 74% | 0 to 24% | 75 to 100% | 50 to 74% | 0 to 24% | 0 to 24% | 0 to 24%
4 | COC(=O)c1c(OC)nc(C(F)(F)F)c(C2OCCO2)c1CC(C)C [Compound 109, 3-pyridinecarboxylic acid, 5-(1,3-dioxolan-2-yl)-2-methoxy-4-(2-methylpropyl)-6-(trifluoromethyl)-, methyl ester] | 75 to 100% | 75 to 100% | 75 to 100% | 75 to 100% | 75 to 100% | 75 to 100% | 75 to 100% | 75 to 100% | 75 to 100% | 75 to 100%
5 | COC(=O)c1c(OC)nc(C(F)(F)F)c(C2OCCCO2)c1CC(C)C [Compound 110, 3-pyridinecarboxylic acid, 5-(1,3-dioxan-2-yl)-2-methoxy-4-(2-methylpropyl)-6-(trifluoromethyl)-, methyl ester] | 75 to 100% | 75 to 100% | 75 to 100% | 75 to 100% | 50 to 74% | 75 to 100% | 75 to 100% | 75 to 100% | 75 to 100% | 75 to 100%
6 | COC(=O)c1c(OC)nc(C(F)(F)F)c(C(=O)n2cc(C#N)cn2)c1CC(C)C [Compound 111, 3-pyridinecarboxylic acid, 5-[(4-cyano-1H-pyrazo1-1-yl)carbonyl]-2-methoxy-4-(2-methylpropyl)-6-(trifluoromethyl)-, methyl ester] | 75 to 100% | 75 to 100% | 75 to 100% | 75 to 100% | 0 to 24% | 75 to 100% | 75 to 100% | 75 to 100% | 50 to 74% | 0 to 24%
